Values quoted from earlier work in patent US10463585B2, “Cosmetic compositions” (The Procter & Gamble Company, priority 2017, dated 2019).

Tested on: tyrosinase expression
Conditions: in vivo; background statement

## PKEK (Artificial sequence is synthesized)
  Tyrosinase expression: reduce tyrosinase expression
